Measured values from paper PMC11040934, “PI3Kγδ inhibition suppresses key disease features in a rat model of asthma” (Respiratory Research, 2024).
Where two headings read alike, the source gives them in different places.

Key:
rat PI3Kγ = rat PI3Kγ (Rattus norvegicus, UniProt D3ZFJ0); assay: PI3K γ assay: CXCL1/CINC-1-stimulated CD11b expression on rat whole blood neutrophils (FACS); type: cell-based; conditions: mean ± SEM, n = 3
Experimental: (§1) PI3K γ assay: whole blood from male Sprague Dawley rat was collected in heparin coated tubes and pre-treated (1 hr., 37 °C, 5% CO2) with vehicle DMSO or PI3K inhibitors followed by stimulation with Rat CXCL1/CINC-1 (515-CN-050, R&D) at 500 ng/mL (EC80 determined in house; 1 hr., RT). Next, cells were stained with Fc block (550,273, BD bioscience, 1:100; 20 mins, RT), CD45R-B220-PeCy7 (HIS24) (25–0460-82, eBioscience, 1:100), CD43-PE (W3/13) (202,812, Biolegend, 1:100), HIS48-FITC (11–0570-82, eBioscience, 1:100), CD11b-APC (562,102, BD Bioscience, 1:100). Cells were lysed and fixed with BD FACS lysing solution (349,202, BD Biosciences; 45 mins, RT) before FACS acquisition (BD LSRFortessa™). Data were analysed using FlowJo 9.9 software (TreeStar). FACS gating strategy: lymphocytes (FSC-A vs SSC-A), doublets exclusion (FSC-W vs FSC-H), neutrophil identification B220-, HIS48hi, CD43hi, SSC-Ahi, geom. MFI for CD11b on neutrophils. IC50 values were determined in Graph Pad through a nonlinear fit on log transform data: log inhibitor vs response, variable slope, 4 parameters. Fraction unbound in diluted whole blood is calculated using the following equation: fu^′=DF·fub/1+DF-1·fub where fu’ is the fraction unbound in diluted whole blood; fub is the fraction unbound in undiluted whole blood; DF is the dilution factor. Fraction unbound in 100% whole blood (fub) is calculated as fup/BP, where fup is the experimentally determined fraction unbound in undiluted plasma and BP is the experimentally determined blood to plasma partition ratio of drug Table 1.

[1] = Rat plasma protein binding, blood to plasma ratio, unbound fraction in whole blood; type: in vitro ADME; conditions: for fraction unbound: rat
Experimental: as §1, with “Next,” for “PI3K γ assay: whole blood from male Sprague Dawley rat was collected in heparin coated tubes and pre-treated (1 hr., 37 °C, 5% CO2) with vehicle DMSO or PI3K inhibitors followed by stimulation with Rat CXCL1/CINC-1 (515-CN-050, R&D) at 500 ng/mL (EC80 determined in house; 1 hr., RT). Next,”

[2] = tested on: JAK/STAT and NF-κB pathways; assay: Rat model of allergic asthma: lung pSTAT3, pSTAT5a,b and NF-κB p65, pathway specificity; type: in vivo, Brown Norway rat; conditions: i.t. 1 hr before OVA challenge; lung 2 hrs after challenge
Experimental: 10 μg of protein from lung tissue extract were utilized in pAkt (T308); pSTAT3, pSTAT4 & STAT5a, b (Phospho-STAT Panel kit) MSD Assay plates (Meso Scale Delivery, USA) and run according to manufacturers’ instructions. Arbitrary electrochemiluminescence signals were read, the blank subtracted and values determined in each plate using a MSD S-Plex plate reader (Meso Scale Delivery, USA). […]
10 μg (5 μL) of nuclear tissue extract were utilized in NF-κB p65 TransAm Activation Assays (Active Motif, USA) and run according to manufacturer’s instructions. Optical density was determined utilizing a spectrophotometer, the blank was subtracted, and values determined (450 nm; Spectromax, UK).

PI3K pathway (pAkt) = assay: Rat model of allergic asthma: lung tissue pAkt (T308), target engagement; type: in vivo, Brown Norway rat; conditions: i.t. 1 hr before OVA challenge; AZD8154 0.02, 0.1, 0.3 mg/kg, budesonide 3 mg/kg; lung 2 hrs after challenge
Experimental: Male, adult, Brown Norway rats were obtained from Charles River Germany at a body weight range of 250-300 g. Animals were housed in temperature controlled individually ventilated cages in groups of 4 with food and water provided ad libitum. Animals underwent acclimatisation for at least 1 week prior to experimentation. Experiments were performed in accordance with the UK Home Office guidelines for animal welfare based on the Animals (Scientific Procedures) Act of 1986 and the ARRIVE guidelines (Fig. E2).
Initially a time course study was performed, followed by a characterisation study with compound & clinical comparator. […]
5 μL of supernatant (1:50 dilution) was taken for Bradford Assay which was run according to manufacturers’ instructions (BioRad, USA). […] Absorbance was measured using a spectrophotometer and total protein values interpolated to standard curve (595 nm; Spectromax, UK).
10 μg of protein from lung tissue extract were utilized in pAkt (T308); pSTAT3, pSTAT4 & STAT5a, b (Phospho-STAT Panel kit) MSD Assay plates (Meso Scale Delivery, USA) and run according to manufacturers’ instructions. Arbitrary electrochemiluminescence signals were read, the blank subtracted and values determined in each plate using a MSD S-Plex plate reader (Meso Scale Delivery, USA).

Sequence of rat PI3Kγ (D3ZFJ0 1-1102): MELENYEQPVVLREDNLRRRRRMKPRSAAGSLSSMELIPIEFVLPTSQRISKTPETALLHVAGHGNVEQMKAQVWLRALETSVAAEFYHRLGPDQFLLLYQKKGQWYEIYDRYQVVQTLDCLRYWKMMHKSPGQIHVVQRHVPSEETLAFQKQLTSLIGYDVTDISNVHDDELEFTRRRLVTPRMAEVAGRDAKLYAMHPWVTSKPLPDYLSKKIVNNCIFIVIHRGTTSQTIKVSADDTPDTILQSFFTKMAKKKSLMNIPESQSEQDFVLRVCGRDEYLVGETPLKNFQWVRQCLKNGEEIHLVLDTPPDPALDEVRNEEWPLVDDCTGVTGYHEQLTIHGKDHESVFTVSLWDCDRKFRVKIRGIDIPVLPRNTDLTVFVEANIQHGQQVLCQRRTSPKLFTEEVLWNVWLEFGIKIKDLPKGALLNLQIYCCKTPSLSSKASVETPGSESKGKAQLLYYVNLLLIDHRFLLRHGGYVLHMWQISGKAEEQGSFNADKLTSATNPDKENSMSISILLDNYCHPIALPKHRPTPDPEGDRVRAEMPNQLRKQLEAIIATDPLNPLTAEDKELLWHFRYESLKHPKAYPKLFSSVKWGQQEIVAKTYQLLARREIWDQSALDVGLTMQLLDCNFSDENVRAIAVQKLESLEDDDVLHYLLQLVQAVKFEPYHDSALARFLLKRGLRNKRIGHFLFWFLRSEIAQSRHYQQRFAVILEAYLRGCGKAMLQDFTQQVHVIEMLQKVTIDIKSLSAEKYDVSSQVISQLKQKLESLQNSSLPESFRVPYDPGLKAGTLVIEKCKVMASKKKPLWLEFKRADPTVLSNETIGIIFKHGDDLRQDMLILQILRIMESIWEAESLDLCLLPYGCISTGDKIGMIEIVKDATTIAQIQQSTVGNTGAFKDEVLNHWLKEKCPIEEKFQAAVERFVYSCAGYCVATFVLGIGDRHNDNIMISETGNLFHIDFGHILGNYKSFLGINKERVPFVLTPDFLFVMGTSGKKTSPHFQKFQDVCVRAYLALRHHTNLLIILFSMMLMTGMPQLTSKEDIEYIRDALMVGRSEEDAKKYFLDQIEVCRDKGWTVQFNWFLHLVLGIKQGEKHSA

Which results are given for `Cc1nc(Nc2cccc(N3CCCC3=O)n2)sc1-c1cc2c(c(S(C)(=O)=O)c1)C(=O)N([C@@H](C)C1CC1)C2` [AZD8154]?
IC50 (rat PI3Kγ; CD11b expression on neutrophils, read-out: rat γ total IC50): 28.7 ± 4.1 nM; IC50 (rat PI3Kγ; corrected for protein binding in the assay, read-out: rat γ free IC50): 0.54 ± 0.08 nM; Rat B/P ratio ([1]; blood to plasma partition ratio): 0.82; Rat fub ([1]; fraction unbound in 100% whole blood, fup/BP): 0.018; fraction unbound ([1]; diluted whole blood (PI3K γ assay), fraction unbound in diluted whole blood, DF 1.05 (γ assay), read-out: fu’): 0.0192; fraction unbound ([1]; plasma, rat plasma, fraction unbound, read-out: Rat ppb (fu, %)): 0.015; fraction unbound ([1]; plasma, undiluted rat plasma, fraction, read-out: Rat plasma fu): 0.015; JAK/STAT pathway (pSTAT3, pSTAT5a,b) in lung tissue [2]: minimal impact; NF-κB pathway (NF-κB p65) in lung nuclear extract [2]: minimal impact; lung tissue pAkt levels (PI3K pathway (pAkt)): dose related suppression
